For data set [1], the system named is FACS-purified ES-derived Rx-GFP+ retinal progenitor cells. Briefly: Differentiation of FACS-purified ES-derived retinal progenitor cells into Crx+ photoreceptor precursors (immunostaining). Format: cell-based, mouse. How it is done:
Methods for mouse ES cell maintenance and differentiation in SFEB conditions were previously reported (reference documents A7, 20). For the sake of the SFEB/DLFA, Dkk1 (R & D Systems, 100 ng/ml, during days 0-5), LeftyA (R & D Systems, 500 ng/ml, during days 0-5), 5% FCS (JRH Biosciences, during days 3-5), and Activin-A (R & D Systems, 10 ng/ml, during days 4-5) were added to a differentiation medium (G-MEM, 5% KSR, 0.1 mM non-essential amino acids, 1 mM pyruvic acid, and 0.1 mM 2-mercaptoethanol) (reference document A6).
(§1) For FACS (see below), until day 9, cell aggregates were incubated in a differentiation medium under suspension culture conditions. After FACS, 1−2×10^4 sorted cells were re-suspended in a differentiation medium containing 10% FCS, and to produce re-aggregated pellets, the suspension was centrifuged at 800 g for 10 minutes. After cultivation at 37° C. for 1 hour, three to five re-aggregated pellets per cm^2 were replated on a poly-D-lysine/laminin/fibronectin-coated culture slides with a differentiation medium supplemented with 10% FCS. On day 10, the culture medium was changed to a differentiation medium not containing FCS, and containing or not containing the gamma secretase inhibitor N—[N-(3,5-difluorophenacetyl)-L-alanyl]-S-phenylglycine t-butyl ester (DAPT, 10 μM, Calbiochem).
On day 9, SFEB/DLFA-treated ES cell aggregates were dissociated with trypsin (0.25%, Invitrogen) and DNaseI (10 μg/ml, Sigma) into single cells. After neutralization, the cells were re-suspended in HBSS containing 0.1% BSA and 5 μg/ml propidium iodide (PI, Sigma), and passed through a cell strainer (BD) as described previously (reference documents A7, 21). The cells were counted and sorted using FACS Aria (BD Biosciences), and data were analyzed using the FACS Diva software (BD Biosciences). Dead cells were excluded by gating forward and side scatter and PI staining. Cells with Rx-GFP fluorescence (band-pass filter: FITC, 530 nm) were sorted and further cultured. […]
(§2) The immunoreactivity of each antibody was confirmed by immunostaining an appropriate retinal tissue as a positive control under the same conditions. Total cell counts were determined by counting nuclei stained by TOTO-3 or DAPI (Molecular Probes). Positive cells were counted in optical slice images prepared by confocal (Leica) or ApoTome (Zeiss) microscopy.
For statistical analyses, at least 2500 cells were examined in each experiment, which was performed at least 3 times. […] The statistical significance of differences was determined by one-way analysis of variance (ANOVA) followed by Tukey's test for the experiments in FIG. 1f, by one-way ANOVA followed by Dunnett's multiple comparison test for the experiment in FIG. 3b, by two-way ANOVA followed by Bonferroni's test for the experiment in FIG. 1j-l. […]

Another data set deals with Retinae of E17.5 mouse. Briefly: Tissue culture of embryonic retina treated with DAPT (Crx staining, RT-PCR). Format: cell-based. The note with it: 10 μM DAPT. The protocol: FIG. 4 The gamma secretase inhibitor DAPT promotes the differentiation of photoreceptor precursors. Retinae of E17.5 mouse were treated, or not treated, with 10 μM DAPT under tissue culture conditions for 2-4 days. (a, b) Two days later, the retinae were stained for Crx (green) and TOTO-3 (blue). Many Crx^+ (green) photoreceptor precursors were found in the DAPT-treated retina (a), whereas several Crx^+ were found in non-treated retina (b). GC, ganglion cell layer; NBL, neuroblastic layer; ONL, outer nuclear layer. (c) RT-PCR analysis of retina treated or not treated with DAPT for 2 or 4 days. It was confirmed that the expression of Hes1 and Hes5 had been decreased in the DAPT-treated retina.
RT-PCR analysis was performed as reported previously (reference documents A7, 20). The primers used are as follows: […]

Another data set has as its system purified Rx+ cells. Briefly: Ki67 expression, BrdU uptake and active caspase 3 in purified Rx+ cells. It counts as cell-based, mouse. How it is done:
as §1
BrdU uptake was examined by culturing the cells in a medium containing 5 μg/ml BrdU for 24 hours before fixation.
(§3) Immunohistological staining was performed as described previously (reference documents A20, 24). The primary antibodies used in this study were as follows: • Anti-Crx (rat/polyclonal/1:200, reference document A6), • Anti-Ki67 (mouse/monoclonal/1:200/BD), • Anti-BrdU (mouse/monoclonal/1:50/BD), • Anti-active caspase-3 (rabbit/monoclonal/1:500/BD), • Anti-red/green opsin (rabbit/polyclonal/1:1000/Chemicon), • Anti-blue opsin (rabbit/polyclonal/1:500/Chemicon), • Anti-rhodopsin (RetP1; mouse/monoclonal/1:1000/SIGMA) and • Anti-Recoverin (rabbit/polyclonal/1:5000/Chemicon).
as §2
(§4) For statistical analyses, at least 2500 cells were examined in each experiment, which was performed at least 3 times. All statistical analyses were performed using GraphPad InStat version 3.0 (GraphPad Software Inc., San Diego, Calif., USA). The statistical significance of differences was determined by one-way analysis of variance (ANOVA) followed by Tukey's test for the experiments in FIG. 1f, by one-way ANOVA followed by Dunnett's multiple comparison test for the experiment in FIG. 3b, by two-way ANOVA followed by Bonferroni's test for the experiment in FIG. 1j-l. Probability values less than 5% were considered significant.

The test system of data set [2] is purified ES-derived Rx+ cells. Briefly: Differentiation of ES-derived photoreceptor precursors into opsin+ cone and rhodopsin+ rod photoreceptors. Format: cell-based, mouse. The note with it: for rod differentiation, factor added individually: after FACS purification and DAPT, acidic FGF 50 ng/ml, basic FGF 10 ng/ml, taurine 1 mM, shh 3 nM, RA 500 nM, from day 16, day 28. How it is done:
as §1
For photoreceptor differentiation, on day 16, the medium was replaced with a retinal culture medium containing the factors shown in FIG. 3a (66% E-MEM-HEPES (Sigma M7278), 33% HBSS (Gibco 24020-117), 1% FCS supplemented with N2, 5.75 mg/ml glucose, 200 μM L-glutamine, 100 U/ml penicillin, and 100 μg/ml streptomycin (Gibco)). aFGF (R & D Systems) and bFGF (R & D Systems) were added during differentiation for 16-24 days; taurine (Sigma), shh (R & D Systems), and RA (Sigma) were added during differentiation days 16-28. The medium was replaced with a fresh supply every 2 days.
as §3, §2, §4

In a further data set the test system is monkey ES cells. Briefly: Differentiation of monkey ES cells into retinal cells (SFEB culture, immunocytochemistry). Format: cell-based, cynomolgus monkey. The note with it: day 40, Dkk-1 100 ng/ml, Lefty-A 500 ng/ml. How it is done: ES colonies were partially dissociated with 0.25% trypsin (in a PBS containing 1 mM CaCl2 and 20% KSR) into clumps (5 to 10 cells per clump). It is noticeable that when this clumps of ES cells were too large (for example, exceeding 50 cells per aggregate), the neural induction efficiency declined. When ES cells dispersed to single cells were used, the cell viability declined, and retinal cells could not efficiently be induced. ES clumps were incubated on a gelatin-coated dish for 30 minutes, whereby STO feeders were removed. ES clumps were plated on a dish of bacterial grade using an ES differentiation medium at a density of 6.7×10^3 aggregate per ml. The composition of the differentiation medium was as follows. [G-MEM (GIBCO), 10% KSR, Lot.1139720 and 1219101, 0.1 mM non-essential amino acids, 1 mM pyruvate and 0.1 mM 2-mercaptoethanol]. […]
Values are expressed as means±S.E.M. For statistic analysis, 100 to 200 colonies in each experiment were examined, each experiment being performed at least 3 times. […] For the experiments in FIG. 7b, statistical significance of difference was determined by one-way analysis of variance (ANOVA) followed by Dunnet's test. The data obtained from FIG. 8a, d, e, h and i were evaluated by unpaired t-test. […]

Setting [3] is: DAPT from day 10, retinal differentiation medium from day 16, day 28.

`C[C@H](NC(=O)Cc1cc(F)cc(F)c1)C(=O)N[C@H](C(=O)OC(C)(C)C)c1ccccc1` [DAPT, N—[N-(3,5-difluorophenacetyl)-L-alanyl]-S-phenylglycine t-butyl ester]: the “frequency of Crx+ cell aggregates” value in data set [1] (10 μM DAPT, most effective on days 10 to 20) is reported as “significantly raised”. Moreover, the “Crx expression in Rx-GFP− cells” value in data set [1] (Rx-GFP− cells treated with DAPT from day 10, day 20) was “did not express Crx”. In addition, the “promotion of differentiation into Crx+ photoreceptor precursors in non-FACS-sorted cells” value in data set [1] (non-FACS-sorted ES cell-derived neural retinal progenitor cells treated with DAPT) is “no evident promotion”. Besides, in data set [1] (sorted Rx-GFP+ cells, 10 μM DAPT from day 10, determined on day 20), the “percentage of Crx+ cells” value came to 22.4±2.9%. In addition, the “ratio of Crx+ photoreceptor precursors in embryonic retinal tissue” value in the data set on Retinae of E17.5 mouse (tissue culture) is on record as “considerably increased”. Also, in the data set with Retinae of E17.5 mouse (tissue culture 2 or 4 days, RT-PCR), the “expression of the differentiation inhibitors Hes1 and Hes5” value is recorded as “suppressed”. In addition, the “proportion of cells positive for active caspase” value with purified Rx+ cells (day 11) amounted to 0.17±0.04%; with purified Rx+ cells (day 12), 0.13±0.04%; in the data set with purified Rx+ cells (day 14), 0.10±0.07%; with purified Rx+ cells (day 16), 0.10±0.01%; with purified Rx+ cells (day 18) it was 0.13±0.02%; in the data set on purified Rx+ cells (day 20) it was 0.10±0.15%. The “Ki67+ cell population versus non-treated cells” value in the data set with purified Rx+ cells (day 14 and thereafter, DAPT from day 10) was “smaller”. Further, the “proportion of cells positive for active caspase, DAPT-treated versus non-treated” value with purified Rx+ cells (days 11-20, Ki67+ population) is listed as “no significant difference”. For the same molecule, the “BrdU+ cells versus non-treated control” value in the data set on purified Rx+ cells (days 14-20, BrdU uptake 24 hours) is on record as “fewer”. Besides, in data set [2] (setting [3]), the “ES-derived cells expressing blue opsin” value is 10.7±1.6%. Besides, the “ES-derived cells expressing red/green opsin” value in data set [2] (setting [3]) was 11.5±2.0%. In data set [2] (DAPT only, no further factors, day 28), this molecule yielded a cells expressing rhodopsin of 5.5±0.5%.

Turning to `NCCS(=O)(=O)O` [taurine], the “rod differentiation, factor added individually” value (from here on “rod differentiation”) in data set [2] is recorded as “promoted rod differentiation”.

With “acidic FGF: acidic FGF (R & D Systems), soluble factor”, in data set [2], the “rod differentiation” value was “promoted rod differentiation”.

On to “basic FGF: basic FGF (R & D Systems), soluble factor”, for which the “rod differentiation” value in data set [2] is listed as “promoted rod differentiation”.

B1: Lefty-A: Lefty-A protein, nodal antagonist (protein, UniProt O00292 77-366, looked up)
Left-right determination …: RFSQSFREVAGRFLASEASTHLLVFGMEQRLPPNSELVQAVLRLFQEPVPKAALHRHGRLSPRSAQARVTVEWLRVRDDGSNRTSLIDSRLVSVHESGWKAFDVTEAVNFWQQLSRPRQPLLLQVSVQREHLGPLASGAHKLVRFASQGAPAGLGEPQLELHTLDLRDYGAQGDCDPEAPMTEGTRCCRQEMYIDLQGMKWAKNWVLEPPGFLAYECVGTCQQPPEALAFNWPFLGPRQCIASETASLPMIVSIKEGGRTRPQVVSLPNMRVQKCSCASDGALVPRRLQP
Regarding B1, the “ratio of Mitf+ colonies” value with monkey ES cells is reported as 50.8±5.0%.

B2: Dkk-1: Recombinant Dkk-1 protein, Wnt antagonist (protein, UniProt O94907 32-266, looked up)
Dickkopf-related protein 1: TLNSVLNSNAIKNLPPPLGGAAGHPGSAVSAAPGILYPGGNKYQTIDNYQPYPCAEDEECGTDEYCASPTRGGDAGVQICLACRKRRKRCMRHAMCCPGNYCKNGICVSSDQNHFRGEIEETITESFGNDHSTLDGYSRRTTLSSKMYHTKGQEGSVCLRSSDCASGLCCARHFWSKICKPVLKEGQVCTKHRRKGSHGLEIFQRCYCGEGLSCRIQKDHHQASNSSRLHTCQRH
Turning to B2, the “ratio of Mitf+ colonies” value in the data set on monkey ES cells was 35.3±4.4%.

The values above are taken from patent US9133435B2, “Method for induction/differentiation into photoreceptor cell” (RIKEN, priority 2007, dated 2015).
